Test results as given in patent US10874669B2 (WAYNE STATE UNIVERSITY, priority 2018, dated 2020).
“Also recorded” adds a separate entry of the source.

Assays:
PC12 cells [1] = conditions: previously shown; cited from earlier work
α-syn = α-syn (Homo sapiens (Human), UniProt P37840); conditions: previously shown; cited from earlier work
PC12 cells [2] = assay: MTT cell viability, compounds alone; type: cell-based, rat; conditions: 0.01-30 μM, compared to untreated controls
Experimental: (§1) To investigate the neuroprotection property of the selected target molecules (−)-91b, (−)-95a and (−)-95c against 6-OHDA-induced cytotoxicity, we used dopaminergic rat adrenal Pheochromocytoma PC12 cells. As reported above, treatment of PC12 cells with 6-OHDA at 75 μM for 24 h produced ˜50% loss in cells viability and this concentration was used in subsequent experiments. […] However, (−)-95a produced some incremental toxicity starting at 20 μM dose (FIG. 4B). The potential neuroprotective effects of (−)-91b, (−)-95a and (−)-95c against 6-OHDA-induced toxicity were evaluated next. […] At those concentration both drugs increased cell survival by ˜20% compared to 6-OHDA (75 μM) treated alone (FIGS. 4D and 4F), indicating neuroprotective effect of these drugs. […] This could be due to the fact that the compound by itself produced toxicity to the cells at doses ≥20 μM and the presence of 6-OHDA enhanced the toxicity (FIG. 4B).
PC12 cells (ATCC CRL1721.1, Manassas, Va., USA), a rat adrenal pheochromocytoma cell line, were cultured in T-75 flasks (Greiner Bio One, Frickenhausen, Germany) and maintained in RPMI 1640 medium supplemented with 10% heat inactivated horse serum, 5% fetal bovine serum, 100 U/ml penicillin, and 100 μg/mL streptomycin at 37° C. in 95% air/5% CO2. Stock solutions of (−)-91b, (−)-95a, (−)-95c, and 6-hydroxydopamine (6-OHDA) were prepared in dimethylsulfoxide (DMSO) and aliquots were stored at −20° C. and −80° C., respectively. […]
PC12 cells were plated at 17000 cells/well density in 100 μL of media in 96-well plates and incubated at 37° C. under 5% CO2 atmosphere for 24 h. […] The absorbance was measured on a microplate reader (Biotek Epoch, Winooski, Vt., USA) at 570 nm with background correction performed at 690 nm. Data from at least three experiments were analyzed using GraphPad software (version 6, San Diego, Calif., USA). Cell viability was defined as […] compared to untreated controls.

human DA D2 receptors = human DA D2 receptors (Homo sapiens (Human), UniProt P14416); assay: [35S]GTPγS binding stimulation, human D2 receptors in CHO cells; type: biochemical
Sequence of human DA D2 receptors (P14416 whole entry): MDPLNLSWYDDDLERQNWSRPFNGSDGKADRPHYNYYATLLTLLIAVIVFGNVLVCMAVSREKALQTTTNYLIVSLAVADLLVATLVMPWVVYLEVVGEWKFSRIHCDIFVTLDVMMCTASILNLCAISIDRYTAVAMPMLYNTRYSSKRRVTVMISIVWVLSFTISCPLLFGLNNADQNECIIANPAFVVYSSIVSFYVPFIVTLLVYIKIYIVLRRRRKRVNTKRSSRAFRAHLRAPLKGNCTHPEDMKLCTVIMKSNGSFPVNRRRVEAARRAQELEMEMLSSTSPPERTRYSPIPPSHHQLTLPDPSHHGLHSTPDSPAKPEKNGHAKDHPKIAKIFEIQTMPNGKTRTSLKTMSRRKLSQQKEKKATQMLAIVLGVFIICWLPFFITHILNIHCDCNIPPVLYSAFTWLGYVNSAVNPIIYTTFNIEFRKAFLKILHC

PC12 cells [3] = assay: MTT neuroprotection against 6-OHDA-induced toxicity; type: cell-based, rat
Experimental: as §1
PC12 cells (ATCC CRL1721.1, Manassas, Va., USA), a rat adrenal pheochromocytoma cell line, were cultured in T-75 flasks (Greiner Bio One, Frickenhausen, Germany) and maintained in RPMI 1640 medium supplemented with 10% heat inactivated horse serum, 5% fetal bovine serum, 100 U/ml penicillin, and 100 μg/mL streptomycin at 37° C. in 95% air/5% CO2. Stock solutions of (−)-91b, (−)-95a, (−)-95c, and 6-hydroxydopamine (6-OHDA) were prepared in dimethylsulfoxide (DMSO) and aliquots were stored at −20° C. and −80° C., respectively. For all experiments assessing neuroprotective effects of the test compounds, PC12 cells were pretreated with indicated concentrations of (−)-91b, (−)-95a and (−)-95c for 24 h and then treated with 75 μM 6-OHDA for another 24 h. The control cells were treated with above media containing 0.01% DMSO only.
PC12 cells were plated at 17000 cells/well density in 100 μL of media in 96-well plates and incubated at 37° C. under 5% CO2 atmosphere for 24 h. Cells were treated with varying concentrations of the test compounds to determine their direct effect on cell viability. Neuroprotection experiments were conducted by treating cells for 24 h with varying concentrations of (−)-91b, (−)-95a and (−)-95c. Then the drug containing media was replaced with fresh culture media followed by treatment with 75 μM of 6-OHDA alone for an additional 24 h under the same condition. After incubation for 24 h, 5 mg/mL MTT solution (prepared in Dulbecco's phosphate-buffered saline) was added to the cells (to a final concentration of 0.5 mg/mL) and the plates were further incubated at 37° C. in 95% air/5% CO2 atmosphere for 3-4 h to produce dark-blue formazan crystals. Afterward, the plates were centrifuged at 450 g for 10 min and the supernatants were carefully removed. Formazan crystals were dissolved by adding 100 μL of methanol:DMSO (1:1) mixture to each well and shaking gently at 400 rpm for 30 min at room temperature on a Thermomix R shaker (Eppendorf, Hamburg, Germany). The absorbance was measured on a microplate reader (Biotek Epoch, Winooski, Vt., USA) at 570 nm with background correction performed at 690 nm. Data from at least three experiments were analyzed using GraphPad software (version 6, San Diego, Calif., USA). Cell viability was defined as […] compared to untreated controls.

cloned rat D3 receptors = cloned rat D3 receptors (Rattus norvegicus (Rat), UniProt P19020); assay: [3H]spiroperidol competition binding, rat D3 receptors in HEK-293 cells; conditions: rat D3 in HEK-293 cells; values of Table 3
Sequence of cloned rat D3 receptors (P19020 whole entry): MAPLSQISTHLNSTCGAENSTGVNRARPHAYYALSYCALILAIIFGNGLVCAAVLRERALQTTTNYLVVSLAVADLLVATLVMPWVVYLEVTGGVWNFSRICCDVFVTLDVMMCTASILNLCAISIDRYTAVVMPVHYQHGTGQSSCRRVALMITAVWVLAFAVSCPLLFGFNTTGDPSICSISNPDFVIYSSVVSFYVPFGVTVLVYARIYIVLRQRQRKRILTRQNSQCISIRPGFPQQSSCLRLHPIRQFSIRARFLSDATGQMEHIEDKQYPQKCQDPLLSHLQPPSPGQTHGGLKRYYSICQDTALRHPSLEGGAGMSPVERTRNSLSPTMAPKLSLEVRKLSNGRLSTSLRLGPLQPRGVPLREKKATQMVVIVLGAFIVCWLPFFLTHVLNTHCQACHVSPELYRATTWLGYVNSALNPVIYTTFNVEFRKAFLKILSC
Experimental: A well established radioligand competition assay was carried out to evaluate binding affinity of the test compounds and were compared with that of the reference agent (S)-5-OH-DPAT (Table 3). Binding affinity to rat DA D2 and D3 receptors expressed in HEK-293 cells was determined as described by us previously. […] This indicated highest tolerance of the 4-substituted carbazole derivative for interaction with the D2 and D3 receptors.
(§2) All these procedures were described by us previously.

[4] = tested on: reserpine-induced hypolocomotion in rats; assay: Reversal of reserpine-induced hypolocomotion in rats; conditions: 10 μMol/kg, ip
Experimental: In this model depletion of catecholamines by reserpine results in catalepsy in rats.
The following commercially available drug was used in the experiment: reserpine hydrochloride (Alfa Aesar). […] The compounds for this study were administered in a volume of 0.1-0.2 mL for subcutaneous administration and 0.5-0.7 ml for interaperitoneal administration into each rat.
In rodent studies, animals were male and female Sprague-Dawley rats from Harlan (Indianapolis, Ind.) weighing 220-225 g unless otherwise specified. Animals were maintained in sawdust-lined cages in a temperature and humidity controlled environment at 22±1° C. and 60±5% humidity, respectively. A 12 h light/dark cycle was maintained, with lights on from 6:00 a.m. to 6:00 p.m. They were group-housed with unrestricted access to food and water. All experiments were performed during the light component.
Reserpine (5.0 mg/kg, sc) was administered 18 h before the injection of drug or vehicle. The rats were placed individually in the chambers for 1 h for acclimatization before administration of the test drugs or vehicle. Immediately after administration of drug or vehicle, animals were individually placed in Opto-Varimex 4 animal activity monitor chamber (Columbus Instruments, Ohio, USA) to start measuring locomotor activity. Locomotion was monitored for 6 h. […] The data were presented as horizontal activity (HACTV). […] The data were analyzed by one-way analysis of variance (ANOVA) followed by Dunnett's post hoc test.

PC12 cells [5] = assay: DCFDA fluorescence assay of intracellular ROS induced by 6-OHDA; type: cell-based, rat; conditions: 20 μM, 24 h pretreatment, then 75 μM 6-OHDA 1 h
Experimental: Experimental detection of reactive oxygen species (ROS) produced by 6-OHDA was carried out by DCFDA assay. 6-OHDA, a well known neurotoxin, produces oxidative stress similar to what is observed in PD and the mechanism of neurotoxicity of 6-OHDA takes place via its auto-oxidation and subsequent generation of hydrogen peroxide. DCFDA is a non-fluorogenic dye but in the presence of ROS, it is oxidized to produce DCF which produces florescence. We have previously shown that 6-OHDA causes cell death in a dose-dependent manner. We chose 75 μM 6-OHDA as we have shown that this dose induces 40-50% cell death. […] However, the test compounds could dose dependently decrease the production of ROS induced by 6-OHDA (75 μM) in PC12 cells. In this regard, highest dose of all the three compounds was the most efficacious in producing significant antioxidant effect.
PC12 cells (ATCC CRL1721.1, Manassas, Va., USA), a rat adrenal pheochromocytoma cell line, were cultured in T-75 flasks (Greiner Bio One, Frickenhausen, Germany) and maintained in RPMI 1640 medium supplemented with 10% heat inactivated horse serum, 5% fetal bovine sérum, 100 U/ml penicillin, and 100 μg/mL streptomycin at 37° C. in 95% air/5% CO2. […]
PC12 cells were plated at 30,000 cells/well density in 100 μL media in 96-well black plates and incubated at 37° C. under 5% CO2 atmosphere for 24 h. […] After incubation for 1 h, the fluorescence was measured using spectrophotometer fluorescence generated microplate reader (Biotek Epoch, Winooski, Vt., USA) at excitation 497 nm and emission at 527 nm. […] The specific fluorescence emission was calculated after subtraction of the DCFDA untreated control cells from the DCFDA treated cells for both the background and 1 h treatment conditions. This was followed by the division of the 1 h treatment data by the background activity which was determined from vials before treatment with 6-OHDA, to derive the final data point.

human DA D3 receptors = human DA D3 receptors (Homo sapiens (Human), UniProt P35462); assay: [35S]GTPγS binding stimulation, human D3 receptors in CHO cells; type: biochemical
Sequence of human DA D3 receptors (P35462 whole entry): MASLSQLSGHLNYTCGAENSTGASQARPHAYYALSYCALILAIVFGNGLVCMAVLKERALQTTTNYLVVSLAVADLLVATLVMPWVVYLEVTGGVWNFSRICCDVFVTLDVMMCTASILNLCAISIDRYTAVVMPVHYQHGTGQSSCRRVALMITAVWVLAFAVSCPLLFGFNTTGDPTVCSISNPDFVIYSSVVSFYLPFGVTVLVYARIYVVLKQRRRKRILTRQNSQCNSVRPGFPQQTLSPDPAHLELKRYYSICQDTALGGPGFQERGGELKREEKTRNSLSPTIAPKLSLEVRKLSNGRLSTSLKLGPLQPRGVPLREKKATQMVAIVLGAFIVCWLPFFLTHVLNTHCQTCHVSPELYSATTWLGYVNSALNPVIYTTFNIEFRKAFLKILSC

cloned rat D2L receptors = cloned rat D2L receptors (Rattus norvegicus (Rat), UniProt P61169); assay: [3H]spiroperidol competition binding, rat D2L receptors in HEK-293 cells; conditions: rat D2 in HEK-293 cells; values of Table 3
Sequence of cloned rat D2L receptors (P61169 whole entry): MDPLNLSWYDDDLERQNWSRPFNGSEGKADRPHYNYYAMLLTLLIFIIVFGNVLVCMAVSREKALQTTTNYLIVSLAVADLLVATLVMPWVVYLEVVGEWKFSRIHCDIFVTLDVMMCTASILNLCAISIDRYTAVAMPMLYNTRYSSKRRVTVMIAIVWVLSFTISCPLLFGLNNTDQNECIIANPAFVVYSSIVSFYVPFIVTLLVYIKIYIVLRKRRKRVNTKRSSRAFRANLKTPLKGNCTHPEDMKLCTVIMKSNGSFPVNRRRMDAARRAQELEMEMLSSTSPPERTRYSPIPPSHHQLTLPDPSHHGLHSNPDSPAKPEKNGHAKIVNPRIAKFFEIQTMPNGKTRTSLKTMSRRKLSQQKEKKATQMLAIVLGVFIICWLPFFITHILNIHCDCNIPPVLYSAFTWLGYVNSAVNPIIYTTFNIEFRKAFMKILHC
Excerpt: as §2

[6] = compared with maximum stimulation by full agonist DA

SMILES | reducing toxicities of α-syn aggregates, compared to hybrid agonist (PC12 cells [1]) | decreasing ThT fluorescence, compared to hybrid agonist (α-syn) | cell viability, compound alone (PC12 cells [2]) | EC50 (human DA D2 receptors; CHO cells, read-out: EC50 (GTPγS), D2) [nM] | Emax (human DA D2 receptors; [6]) [%] | concentration of greatest protective effect (PC12 cells [3]; 24 h pretreatment, then 75 μM 6-OHDA 24 h) [µM] | increase in cell survival compared to 6-OHDA treated alone (PC12 cells [3]; at concentration of greatest protective effect, 75 μM 6-OHDA) [%] | Ki (cloned rat D3 receptors) [nM] | duration of locomotor activation ([4]; locomotion monitored for 6 h) | reversal of reserpine-induced akinesia / hypolocomotion (horizontal activity) ([4]; reserpine 5 mg/kg sc, 18 h pretreatment, rats) | reduction in ROS (PC12 cells [5]) [%] | EC50 (human DA D3 receptors; CHO cells, read-out: EC50 (GTPγS), D3) [nM] | Emax (human DA D3 receptors; [6]) [%] | Ki (cloned rat D2L receptors) [nM]
CCCN(CCC)C1CCc2c(O)cccc2C1 (stereo not shown) [Compound 5-OHDPAT, 5-hydroxy-2-(dipropylamino)tetralin] | far less effective | far less effective | – | – | – | – | – | – | – | – | – | – | – | –
CCCN(CCN1CCN(c2cccc3[nH]c4ccccc4c23)CC1)[C@H]1CCc2c(O)cccc2C1 [Compound (−)-95c, (S)-6-((2-(4-(9H-carbazol-4-yl)piperazin-1-yl)ethyl)(propyl)amino)-5,6,7,8-tetra-hydronaphthalen-1-ol] | – | – | no cells loss | 2.29 | 74 to 88 | 20 | ~20 | 0.36 | significant enhancement of locomotion for the duration of the study of 6 h | significantly reversed akinesia; also recorded: significantly different | 36 | 0.22 | 74 to 88 | 16.9
CCCN[C@H]1CCc2nc(N)sc2C1 [Pramipexole] | far less effective | far less effective | – | – | – | – | – | – | – | – | – | – | – | –
